Source: patent US20250177405A1, “METHODS OF TREATING NEUROLOGICAL AND CARDIOVASCULAR CONDITIONS” (ASTROCYTE PHARMACEUTICALS, INC., priority 2021, published 2025)

Tests used:
[1] = neonatal pig pharmacokinetics: CSF versus brain extracellular fluid concentrations; assay type: in vivo; settings: brain equilibrium dialysis
Text: Using this receptor occupancy estimate, we advanced to studies in neonatal pigs, targeting doses that would yield unbound brain and CSF concentrations that would provide a similar receptor occupancy to that associated with efficacy in the rodent models. In the pig, we had the advantage of conducting pharmacokinetic studies involving CSF collection, brain equilibrium dialysis to directly determine brain unbound extracellular fluid concentrations, plasma concentrations and finally total brain concentrations. […] This was a key study to validate the use of I-1 CSF concentrations to estimate brain receptor occupancy. In the pig efficacy studies, we achieved efficacy at estimated receptor occupancies of around 2%.
Animals. Four-week old female neonatal pigs weighing approximately 7.5 Kg may be used for this study. Animals are equipped with brain microdialysis probes to obtain brain extracellular fluid samples for drug concentration determinations during the study.
Tissue Sampling: Blood samples are obtained at 0.25, 0.5, 1, 2, 4 and 6 hours post-dose. […]
Plasma, brain, brain extracellular fluid and cerebrospinal fluid concentrations of test compound are determined by LC-MS/MS utilizing tolbutamide as an internal standard. For each tissue matrix, standard curves are created and LLOQ/ULOQ concentrations determined.

[2] = plasma protein binding (free fraction); assay type: in vitro ADME; settings: mouse
Text: Example 3 of U.S. Pat. No. 9,789,131, which is incorporated herein by reference, describes assays for determining the plasma and brain free fraction of certain compounds such as I-1. Compounds described herein may be evaluated using such assays or similar variants thereof.

With `CSc1nc(N)c2ncn([C@H]3C(O)C(O)[C@]4(CO)C[C@H]34)c2n1` (stereo in doubt) [Compound I-1] the “I-1 concentrations in the CSF versus unbound brain extracellular fluid” value [1] was “equal to unbound brain extracellular fluid concentrations” and the “free (unbound) fraction in plasma” value [2] was 0.74.
